Several values for one entry are separate records, joined by “and”; a condition that tells them apart may be missing. Equal entries are not always repeated.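 Assay format: 96-well plates, 48-hour exposure. At the GI50, growth is halved. TGI denotes the concentration required for complete inhibition of growth.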 Some results are limits rather than exact numbers.

Some test systems named below: SN12C renal; KM12 colon; EKVX NSCLC; SF-539 CNS; UO-31 renal; HOP-62 NSCLC; MDA-MB-231 breast; UACC-257 melanoma; SNB-75 CNS; HOP-92 NSCLC.
Assay in all cases: inhibition of tumour cell growth, NCI panel, 48 h

For the compound `CC/C(=C(/c1ccc(/C=C/C(=O)O)cc1)c1ccc2[nH]ncc2c1)c1ccc(F)cc1Cl`, the GI50 is 14.7 µM with SN12C renal; 6.79 µM in the experiment with KM12 colon; 13.2 µM in the experiment with EKVX NSCLC; 7.84 µM with SF-539 CNS; 11.2 µM with UO-31 renal; 9.98 µM in the experiment on HOP-62 NSCLC. The GI50 with MDA-MB-231 breast was 16.2 µM; in the experiment on UACC-257 melanoma, 17.4 µM; in the experiment with SNB-75 CNS it was 6.91 µM; in the experiment with HOP-92 NSCLC it was 10.1 µM. The TGI was 44.6 µM in the experiment on SN12C renal; 21.5 µM in the experiment on KM12 colon; 32.3 µM in the experiment with EKVX NSCLC; 21.6 µM in the experiment with SF-539 CNS; 24.7 µM in the experiment on UO-31 renal; 26.5 µM in the experiment on HOP-62 NSCLC. The TGI with MDA-MB-231 breast was found to be 34.6 µM; with UACC-257 melanoma, 43.2 µM; in the experiment on SNB-75 CNS it was 26.3 µM; with HOP-92 NSCLC, 24.8 µM.
For the compound `N=C(N)c1ccc(OCCCCCOc2ccc(C(=N)N)cc2)cc1`, the GI50 in the experiment on SN12C renal is 2.02 µM; in the experiment with KM12 colon, 2.5 µM and 6.35 µM and 14.3 µM; in the experiment with EKVX NSCLC it was 8.89 µM; in the experiment with SF-539 CNS, 8.36 µM; with HOP-62 NSCLC, 3.38 µM; in the experiment with MDA-MB-231 breast it was 8.69 µM. In addition, the GI50 is 4.44 µM and 7.51 µM and 15.5 µM with UACC-257 melanoma; 1.89 µM with HOP-92 NSCLC. For the same compound, the TGI with SN12C renal is 34.2 µM and 25 µM and 24.7 µM; in the experiment with KM12 colon it was 14.3 µM and 20.9 µM and 31 µM; in the experiment on EKVX NSCLC, > 50 µM and 45.5 µM and 72.6 µM; in the experiment on SF-539 CNS it was 20.7 µM and 27.1 µM; in the experiment with UO-31 renal, over 100 µM; in the experiment on HOP-62 NSCLC, 10.6 µM and 32.8 µM and 30.3 µM. Moreover, the TGI is > 50 µM and 44.4 µM with MDA-MB-231 breast; 26.3 µM and 23.7 µM and 48.9 µM in the experiment on UACC-257 melanoma; 33.1 µM and 18.3 µM and > 100 µM in the experiment on SNB-75 CNS; 21.5 µM and > 100 µM in the experiment with HOP-92 NSCLC.
For the compound `CCOC(=O)c1cc2cc(OCc3ccccc3)ccc2[nH]1`, the GI50 was over 100 µM in the experiment with SN12C renal; over 100 µM with KM12 colon; over 100 µM with EKVX NSCLC; over 100 µM in the experiment on SF-539 CNS; over 100 µM in the experiment with UO-31 renal; 92.7 µM with HOP-62 NSCLC. The GI50 was 49.2 µM in the experiment with MDA-MB-231 breast, over 100 µM in the experiment with UACC-257 melanoma, 26 µM in the experiment with SNB-75 CNS and 62.3 µM in the experiment with HOP-92 NSCLC. Further, the TGI in the experiment with SN12C renal, with KM12 colon, in the experiment on EKVX NSCLC, in the experiment with SF-539 CNS, in the experiment on UO-31 renal and in the experiment with HOP-62 NSCLC was over 100 µM each time. Moreover, the TGI with MDA-MB-231 breast, with UACC-257 melanoma, with SNB-75 CNS and in the experiment on HOP-92 NSCLC was over 100 µM each time.
Turning to `C=CC[PH+](c1ccccc1)c1ccccc1.C=CC[PH+](c1ccccc1)c1ccccc1.[Pt+2].[S-]c1ncccn1.[S-]c1ncccn1`, the GI50 with SN12C renal is 13.5 µM; with KM12 colon it was 28.4 µM; with EKVX NSCLC it was 26.9 µM; with SF-539 CNS, 21.4 µM; with UO-31 renal, 3.75 µM; with HOP-62 NSCLC, 39.5 µM. The GI50 with MDA-MB-231 breast was 5.68 µM; with UACC-257 melanoma it was 11.6 µM; in the experiment with SNB-75 CNS, 8.25 µM; in the experiment on HOP-92 NSCLC it was 2.7 µM. Further, the TGI in the experiment on SN12C renal is 48.6 µM; in the experiment with KM12 colon it was over 100 µM; in the experiment on EKVX NSCLC, over 100 µM; in the experiment with SF-539 CNS, 52.3 µM; in the experiment with UO-31 renal it was 18 µM; with HOP-62 NSCLC, over 100 µM. Moreover, the TGI is 52.8 µM with MDA-MB-231 breast, 37.2 µM in the experiment with UACC-257 melanoma, over 100 µM in the experiment on SNB-75 CNS and 19.7 µM with HOP-92 NSCLC.
Take `CCC1=C(c2ccc(OC)cc2)CC[C@]2(CCNC2=O)[C@@H]1C`: the TGI was over 96.3 µM with SN12C renal; over 91.7 µM in the experiment with KM12 colon; over 86.7 µM in the experiment on EKVX NSCLC; 54.8 µM in the experiment on SF-539 CNS; 66.3 µM in the experiment with UO-31 renal; over 100 µM in the experiment on HOP-62 NSCLC. Also, the TGI with MDA-MB-231 breast is over 100 µM; in the experiment on UACC-257 melanoma it was 79.1 µM; with SNB-75 CNS, over 95.6 µM; with HOP-92 NSCLC, over 100 µM.
With `O=C(/C=C/c1cccc(Oc2ccc(Cl)cc2)c1)c1ccccc1`, the GI50 in the experiment with SN12C renal is 28.4 µM; with KM12 colon it was 34.9 µM; in the experiment on EKVX NSCLC, 104 µM; with SF-539 CNS it was 21.3 µM; with UO-31 renal it was 17.3 µM; in the experiment on HOP-62 NSCLC, 113 µM. The GI50 is 29.1 µM in the experiment on MDA-MB-231 breast, 185 µM in the experiment with UACC-257 melanoma, 124 µM in the experiment on SNB-75 CNS and 21.8 µM in the experiment on HOP-92 NSCLC. Besides, the TGI in the experiment on SN12C renal worked out at 78.4 µM; in the experiment with KM12 colon, 125 µM; in the experiment with EKVX NSCLC, 261 µM; in the experiment with SF-539 CNS it was 53.2 µM; in the experiment with UO-31 renal, 34.1 µM; in the experiment with HOP-62 NSCLC, 272 µM. Also, the TGI in the experiment with MDA-MB-231 breast is 89 µM; in the experiment on UACC-257 melanoma, 344 µM; with SNB-75 CNS, 269 µM; in the experiment with HOP-92 NSCLC it was 50.1 µM.
On to `COC(=O)C1=Nc2ccc(F)cc2/C1=C/c1sc(=S)[nH]c1O`, for which the GI50 in the experiment with SN12C renal is 0.354 µM; with KM12 colon it was 0.0734 µM; in the experiment on EKVX NSCLC it was 0.987 µM; in the experiment on SF-539 CNS, 0.0743 µM; in the experiment with UO-31 renal, 0.457 µM; in the experiment on HOP-62 NSCLC, 0.18 µM. The GI50 in the experiment on MDA-MB-231 breast was 0.358 µM; in the experiment with UACC-257 melanoma it was 6.13 µM; in the experiment with SNB-75 CNS, 0.0301 µM; with HOP-92 NSCLC, 1.19 µM. Also, the TGI was over 26.3 µM with SN12C renal; 10.7 µM with KM12 colon; over 100 µM in the experiment on EKVX NSCLC; 0.751 µM in the experiment on SF-539 CNS; 5.14 µM in the experiment on UO-31 renal; 18.7 µM in the experiment with HOP-62 NSCLC. Also, the TGI with MDA-MB-231 breast was 4.26 µM; with UACC-257 melanoma, over 100 µM; with SNB-75 CNS, 11.8 µM; in the experiment on HOP-92 NSCLC, 14.4 µM.
